Experimental findings from ChEMBL document CHEMBL1127977, “Benzolactam growth hormone secretagogues: Carboxamides as replacements for the 2-tetrazole moiety of L-692,429” (1994) are described below.

SMILES strings stand for the structures.

This assay is filed under the species Rattus norvegicus. Put plainly: Tested in vitro for growth hormone release in rat pituitary cells. The class given is functional. As to conditions: Pituitary gland cell, read-out: ED50 (the source's name).
In the case of `CC(C)(N)CC(=O)N[C@@H]1CCc2ccccc2N(Cc2ccc(-c3ccccc3C(=O)NCCCCCO)cc2)C1=O`, the EC50 is 10 nM. Next, `CC(C)(CC(=O)N[C@@H]1CCc2ccccc2N(Cc2ccc(-c3ccccc3C(N)=O)cc2)C1=O)NC[C@H](O)CO`: 3 nM; `COc1ccc(CNC(=O)c2ccccc2-c2ccc(CN3C(=O)[C@H](NC(=O)CC(C)(C)N)CCc4ccccc43)cc2)cc1`: 2000 nM. For the compound `CCCCCNC(=O)c1ccccc1-c1ccc(CN2C(=O)[C@H](NC(=O)CC(C)(C)N)CCc3ccccc32)cc1`, the EC50 was more than 1000 nM.

In the case of `CCNC(=O)c1ccccc1-c1ccc(CN2C(=O)[C@H](NC(=O)CC(C)(C)N)CCc3ccccc32)cc1`, the EC50 turned out to be 90 nM. For `CC(C)(CC(=O)N[C@@H]1CCc2ccccc2N(Cc2ccc(-c3ccccc3-c3nn[nH]n3)cc2)C1=O)NC[C@H](O)CO`, the EC50 came out at 10 nM. With `CC(C)(N)CC(=O)N[C@@H]1CCc2ccccc2N(Cc2ccc(-c3ccccc3C(N)=O)cc2)C1=O`, the EC50 amounted to 80 nM. With `CC(C)(N)CC(=O)N[C@@H]1CCc2ccccc2N(Cc2ccc(-c3ccccc3C(=O)NCCCCO)cc2)C1=O`, the EC50 is 10 nM. For `CC(C)(N)CC(=O)N[C@@H]1CCc2ccccc2N(Cc2ccc(-c3ccccc3-c3nn[nH]n3)cc2)C1=O`, the EC50 turned out to be 60 nM. Take `CC(C)(N)CC(=O)N[C@@H]1CCc2ccccc2N(Cc2ccc(-c3ccccc3C(=O)NCCO)cc2)C1=O`: the EC50 was 3000 nM.

Turning to `CC(C)(N)CC(=O)N[C@@H]1CCc2ccccc2N(Cc2ccc(-c3ccccc3C(=O)NCCCO)cc2)C1=O`, the EC50 was 400 nM. For `CCN(CC)C(=O)c1ccccc1-c1ccc(CN2C(=O)[C@H](NC(=O)CC(C)(C)N)CCc3ccccc32)cc1`, the EC50 worked out at 2000 nM. On to `CC(C)(N)CC(=O)N[C@@H]1CCc2ccccc2N(Cc2ccc(-c3ccccc3C(=O)NCc3ccccc3)cc2)C1=O`, for which the EC50 worked out at 900 nM. On to `CC(C)(N)CC(=O)N[C@@H]1CCc2ccccc2N(Cc2ccc(-c3ccccc3C(=O)NCc3ccc(O)cc3)cc2)C1=O`, for which the EC50 was 300 nM.

In the case of `C[C@@H](O)CNC(C)(C)CC(=O)N[C@@H]1CCc2ccccc2N(Cc2ccc(-c3ccccc3-c3nn[nH]n3)cc2)C1=O` [L-692585], the EC50 turned out to be 3 nM.

With `C[C@@H](O)CNC(C)(C)CC(=O)N[C@@H]1CCc2ccccc2N(Cc2ccc(-c3ccccc3C(N)=O)cc2)C1=O`, the EC50 amounted to 4 nM.
